From publication PMC7587962, “Evaluation of Cytotoxicity and α-Glucosidase Inhibitory Activity of Amide and Polyamino-Derivatives of Lupane Triterpenoids” (Molecules, 2020)
Read-outs that look alike come from different tables or passages of the source.

Key:
HL-60(TB) = conditions: standard drugs used by NCI as control; cited from earlier work
DU-145 = tested on: DU-145; design: method as in PMID 25405285; conditions: standard drugs used by NCI as control; cited from earlier work
A498 = tested on: A498; design: method as in PMID 25405285; conditions: standard drugs used by NCI as control; cited from earlier work
SW-620 = experiment: NCI-60 SRB screen: colon cancer SW-620; type: cell-based; conditions: Homo sapiens, 48 h, SW-620
NCI-H23 = experiment: NCI-60 SRB screen: non-small cell lung cancer NCI-H23; type: cell-based, human; conditions: NCI-H23
[1] = tested on: 60 human tumor cell lines; experiment: cells
NSCL cancer subpanel = experiment: NCI-60 screen, subpanel NSCL cancer
MALME-3M = experiment: NCI-60 SRB screen: melanoma MALME-3M; type: cell-based, human; conditions: MALME-3M
OVCAR-4 = experiment: NCI-60 SRB screen: ovarian cancer OVCAR-4; type: cell-based; conditions: Homo sapiens; OVCAR-4; five concentrations, 48 h, SRB; read-out: GI50
K-562 = experiment: NCI-60 SRB screen: leukemia K-562; type: cell-based, human; conditions: K-562
NCI-H522 = experiment: NCI-60 SRB screen: non-small cell lung cancer NCI-H522; type: cell-based, human; conditions: NCI-H522
HCT-15 = experiment: NCI-60 SRB screen: colon cancer HCT-15; type: cell-based, human; conditions: HCT-15
KM12 = experiment: NCI-60 SRB screen: colon cancer KM12; type: cell-based, human; conditions: KM12
SNB-19 = experiment: NCI-60 SRB screen: CNS cancer SNB-19; type: cell-based, human; conditions: SNB-19
UO-31 = experiment: NCI-60 SRB screen: renal cancer UO-31; type: cell-based, human; conditions: UO-31
HOP-62 = experiment: NCI-60 SRB screen: non-small cell lung cancer HOP-62; type: cell-based, human; conditions: HOP-62
Renal Cancer subpanel = experiment: NCI-60 screen, subpanel Renal Cancer
SF-539 = experiment: NCI-60 SRB screen: CNS cancer SF-539; type: cell-based, human; conditions: SF-539
Leukemia subpanel = experiment: NCI-60 screen, subpanel Leukemia
CAKI-1 = experiment: NCI-60 SRB screen: renal cancer CAKI-1; type: cell-based, human; conditions: CAKI-1
EKVX = experiment: NCI-60 SRB screen: non-small cell lung cancer EKVX; type: cell-based, human
BT-549 = experiment: NCI-60 SRB screen: breast cancer BT-549; type: cell-based, human; conditions: BT-549
HT29 = experiment: NCI-60 SRB screen: colon cancer HT29; type: cell-based; conditions: Homo sapiens, HT29
PC-3 = experiment: NCI-60 SRB screen: prostate cancer PC-3; type: cell-based, human; conditions: PC-3
SK-MEL-2 = experiment: NCI-60 SRB screen: melanoma SK-MEL-2; type: cell-based, human; conditions: SK-MEL-2
SK-OV-3 = experiment: NCI-60 SRB screen: ovarian cancer SK-OV-3; type: cell-based, human; conditions: SK-OV-3
MDA-MB-468 = experiment: NCI-60 SRB screen: breast cancer MDA-MB-468; type: cell-based, human
NCI-H226 = experiment: NCI-60 SRB screen: non-small cell lung cancer NCI-H226; type: cell-based, human; conditions: NCI-H226
786-0 = experiment: NCI-60 SRB screen: renal cancer 786-0; type: cell-based, human; conditions: 786-0
T-47D = experiment: NCI-60 SRB screen: breast cancer T-47D; type: cell-based, human; conditions: T-47D
SF-268 = experiment: NCI-60 SRB screen: CNS cancer SF-268; type: cell-based, human; conditions: SF-268
Ovarian Cancer subpanel = experiment: NCI-60 screen, subpanel Ovarian Cancer
A549/ATCC = experiment: NCI-60 SRB screen: non-small cell lung cancer A549/ATCC; type: cell-based, human; conditions: A549/ATCC
HCC-2998 = experiment: NCI-60 SRB screen: colon cancer HCC-2998; type: cell-based, human; conditions: HCC-2998
NCI-H322M = experiment: NCI-60 SRB screen: non-small cell lung cancer NCI-H322M; type: cell-based, human
SK-MEL-28 = experiment: NCI-60 SRB screen: melanoma SK-MEL-28; type: cell-based, human; conditions: SK-MEL-28
Melanoma subpanel = experiment: NCI-60 screen, subpanel Melanoma
[2] = Homo sapiens, five concentrations, 48 h, SRB, read-out: GI50

Question: Which GI50 (HL-60(TB)) does the source give for `COc1cccc2c1C(=O)c1c(O)c3c(c(O)c1C2=O)C[C@@](O)(C(=O)CO)C[C@@H]3O[C@H]1C[C@H](N)[C@H](O)[C@H](C)O1` [DRB, doxorubicin] here?
Answer: 0.19 µM

Question: What about the GI50 (DU-145) of the same compound?
Answer: 0.11 µM

Question: And the GI50 (A498)?
Answer: 0.1 µM

Question: Which activity at 10 µM (SW-620; single dose 10 µM, read-out: Percentage Cell Growth) does the source give for `C=C(C)[C@@H]1CC[C@]2(C(=O)OC)CC[C@]3(C)[C@H](CC[C@@H]4[C@@]5(C)CCC(=NOCCC(=NOCCC#N)NCCC#N)C(C)(C)[C@@H]5CC[C@]43C)[C@@H]12` [Compound 21] here?
Answer: 22%

Question: And the GI50 (SW-620; five concentrations, SRB, read-out: GI50)?
Answer: 4.45 µM

Question: And the GI50 (NCI-H23; [2])?
Answer: 7.59 µM

Question: And the “Percentage Cell Growth” value (NCI-H23; single dose 10 µM)?
Answer: 21.79%

Question: And the GI50 ([1]; read-out: GI50 ranges against all panels of NCI60)?
Answer: 2.02 to 50 µM

Question: And the GI50 ([1]; read-out: MID a, average sensitivity of all cell line (GI50-MID))?
Answer: 10.2 µM

Question: And the “MID b, average sensitivity of all cell line of particular subpanel” value (from here on “MID b, average sensitivity”) (NSCL cancer subpanel)?
Answer: 12.43 µM

Question: And the “Selectivity, ratio MID a: MID b” value (NSCL cancer subpanel)?
Answer: 0.83

Question: What about the GI50 (MALME-3M; [2]) of the same compound?
Answer: 11.8 µM

Question: What about the “Percentage Cell Growth” value (MALME-3M; single dose 10 µM) of the same compound?
Answer: 25.27%

Question: And the GI50 (OVCAR-4)?
Answer: 12.3 µM

Question: What about the GI50 (K-562; Homo sapiens, K562, five concentrations, 48 h, SRB, read-out: GI50) of the same compound?
Answer: 2.23 µM

Question: What about the “Percentage Cell Growth” value (K-562; single dose 10 µM) of the same compound?
Answer: 5.42%

Question: And the GI50 (NCI-H522; [2])?
Answer: 8.34 µM

Question: And the “Percentage Cell Growth” value (NCI-H522; single dose 10 µM)?
Answer: 13.36%

Question: What about the “Percentage Cell Growth” value (HCT-15; single dose 10 µM) of the same compound?
Answer: 34.28%

Question: And the GI50 (HCT-15; [2])?
Answer: 5.77 µM

Question: And the GI50 (KM12; [2])?
Answer: 9.35 µM

Question: What about the “Percentage Cell Growth” value (KM12; single dose 10 µM) of the same compound?
Answer: 10.89%

Question: What about the GI50 (SNB-19; [2]) of the same compound?
Answer: 12.6 µM

Question: What about the “Percentage Cell Growth” value (SNB-19; single dose 10 µM) of the same compound?
Answer: 28.93%

Question: What about the GI50 (UO-31; [2]) of the same compound?
Answer: 15.6 µM

Question: What about the “Percentage Cell Growth” value (UO-31; single dose 10 µM) of the same compound?
Answer: 19.03%

Question: What about the “Percentage Cell Growth” value (HOP-62; single dose 10 µM) of the same compound?
Answer: 32.54%

Question: And the GI50 (HOP-62; [2])?
Answer: 12.5 µM

Question: And the “MID b, average sensitivity” value (Renal Cancer subpanel)?
Answer: 11.39 µM

Question: And the “Selectivity, ratio MID a: MID b” value (Renal Cancer subpanel)?
Answer: 0.89

Question: What about the GI50 (SF-539; [2]) of the same compound?
Answer: 11 µM

Question: And the “Percentage Cell Growth” value (SF-539; single dose 10 µM)?
Answer: −2.29%

Question: And the “MID b, average sensitivity” value (Leukemia subpanel)?
Answer: 4.90 µM

Question: And the “Selectivity, ratio MID a: MID b” value (Leukemia subpanel)?
Answer: 2.09

Question: What about the “Percentage Cell Growth” value (CAKI-1; single dose 10 µM) of the same compound?
Answer: 18.52%

Question: And the GI50 (CAKI-1; [2])?
Answer: 10.2 µM

Question: What about the GI50 (EKVX; [2]) of the same compound?
Answer: 4.77 µM

Question: What about the “Percentage Cell Growth” value (EKVX; single dose 10 µM) of the same compound?
Answer: 53.13%

Question: And the “Percentage Cell Growth” value (BT-549; single dose 10 µM)?
Answer: 4.40%

Question: And the GI50 (BT-549; [2])?
Answer: 11.3 µM

Question: What about the activity at 10 µM (HT29; HT-29, 48 h, single dose 10 µM, read-out: Percentage Cell Growth) of the same compound?
Answer: 3.88%

Question: What about the GI50 (HT29; HT-29, five concentrations, 48 h, SRB, read-out: GI50) of the same compound?
Answer: 6.7 µM

Question: What about the GI50 (PC-3; [2]) of the same compound?
Answer: 2.26 µM

Question: What about the “Percentage Cell Growth” value (PC-3; single dose 10 µM) of the same compound?
Answer: 4.49%

Question: What about the GI50 (SK-MEL-2; [2]) of the same compound?
Answer: 13.8 µM

Question: And the “Percentage Cell Growth” value (SK-MEL-2; single dose 10 µM)?
Answer: 36.23%

Question: And the GI50 (SK-OV-3; [2])?
Answer: 10.8 µM

Question: What about the “Percentage Cell Growth” value (SK-OV-3; single dose 10 µM) of the same compound?
Answer: 34.60%

Question: What about the GI50 (MDA-MB-468; [2]) of the same compound?
Answer: 2.02 µM

Question: And the “Percentage Cell Growth” value (MDA-MB-468; single dose 10 µM)?
Answer: 4.41%

Question: What about the GI50 (NCI-H226; [2]) of the same compound?
Answer: 5.43 µM

Question: And the “Percentage Cell Growth” value (NCI-H226; single dose 10 µM)?
Answer: 2.42%

Question: And the “Percentage Cell Growth” value (786-0; single dose 10 µM)?
Answer: −11.47%

Question: And the GI50 (786-0; [2])?
Answer: 6.42 µM

Question: And the GI50 (T-47D; Homo sapiens, T47D, five concentrations, 48 h, SRB, read-out: GI50)?
Answer: 3.47 µM

Question: And the “Percentage Cell Growth” value (T-47D; single dose 10 µM)?
Answer: 15.11%

Question: And the GI50 (SF-268; [2])?
Answer: 11.4 µM

Question: What about the “Percentage Cell Growth” value (SF-268; single dose 10 µM) of the same compound?
Answer: 29.14%

Question: And the “MID b, average sensitivity” value (Ovarian Cancer subpanel)?
Answer: 11.86 µM

Question: What about the “Selectivity, ratio MID a: MID b” value (Ovarian Cancer subpanel) of the same compound?
Answer: 0.86

Question: What about the “Percentage Cell Growth” value (A549/ATCC; single dose 10 µM) of the same compound?
Answer: 15.82%

Question: What about the GI50 (A549/ATCC; [2]) of the same compound?
Answer: 5.27 µM

Question: And the “Percentage Cell Growth” value (HCC-2998; single dose 10 µM)?
Answer: 26.92%

Question: And the GI50 (HCC-2998; [2])?
Answer: 13.8 µM

Question: What about the GI50 (NCI-H322M; [2]) of the same compound?
Answer: > 50 µM

Question: What about the “Percentage Cell Growth” value (NCI-H322M; single dose 10 µM) of the same compound?
Answer: 46.12%

Question: What about the GI50 (SK-MEL-28; [2]) of the same compound?
Answer: 17.1 µM

Question: What about the “Percentage Cell Growth” value (SK-MEL-28; single dose 10 µM) of the same compound?
Answer: 29.25%

Question: What about the “MID b, average sensitivity” value (Melanoma subpanel) of the same compound?
Answer: 8.81 µM

Question: And the “Selectivity, ratio MID a: MID b” value (Melanoma subpanel)?
Answer: 1.16
